Where two headings read alike, the source gives them in different places.

From article PMC8998827, “Ligandability Assessment of Human Glutathione Transferase M1-1 Using Pesticides as Chemical Probes” (International Journal of Molecular Sciences, 2022) come the findings set out here.

Test [1] addresses T1, hGSTM1-1 (Homo sapiens, UniProt P09488).
T1 sequence (P09488 1-218): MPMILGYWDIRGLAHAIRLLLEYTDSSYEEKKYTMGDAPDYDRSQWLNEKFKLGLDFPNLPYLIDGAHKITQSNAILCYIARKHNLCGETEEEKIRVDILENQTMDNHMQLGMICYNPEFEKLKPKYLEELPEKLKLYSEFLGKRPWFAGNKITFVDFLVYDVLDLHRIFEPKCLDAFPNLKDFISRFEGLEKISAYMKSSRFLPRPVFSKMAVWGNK
Briefly: biochemical. The arrangement: made in house; host or cells: E. coli. On the procedure: (§1) Reduced GST assays were performed by monitoring the formation of the conjugate of CDNB (1 mM) with GSH (2.5 mM) at 340 nm (ε = 9.6 mM^−1cm^−1) for 120 s according to a published method. One unit of enzyme activity is defined as the amount of enzyme that produces 1 μmol of product per minute under the assay conditions.
Pesticide screening and inhibition potency evaluation towards hGSTM1-1 were carried out in the assay system described above in the presence of 25 μM pesticide diluted in acetone. During the assay, no measurable pesticide/GSH reaction was detected. The percentage of enzyme inhibition (I) was calculated using the following equation:%I = [(Ro − Ri)/Ro] × 100(3) where Ro is the unit of enzyme activity increase for the uninhibited reaction and Ri is the rate of increase for the inhibited reaction. Both Ri and Ro correspond to the same substrate concentration.

Test [2] has as its target T1, hGSTM1-1. The test can be described thus: IC50 determination, concentration-response in CDNB-GSH assay. Type of test: biochemical. Further details: made in house; host or cells: E. coli. As to conditions: 37 °C, pH 6.5; CDNB-GSH assay; read-out: IC50. On the procedure:
as §1
[…]. The IC50 values were determined using the program GraphPad Prism (GraphPad Software Inc., Version 7, San Diego, CA, USA).

Test [3] concerns the target T1, hGSTM1-1. The test can be described thus: biochemical. The conditions noted are these: pH 7.4. The source says: Furthermore, the catalytic activity of hGSTM1-1 cannot be regained by extensive dialysis or gel filtration on Sephadex G-25. […] The Kapp calculated by inactivation experiments is in good agreement to that determined by kinetic inhibition analysis.
The rate of inactivation was followed by periodically removing samples for assays of enzymatic activity.

Setting [4] is: 25 μM pesticide, CDNB (1 mM)-GSH (2.5 mM) assay, mean of three assays, variation less than 5%, read-out: Inhibition (%).
Setting [5] is: 25 μM pesticide, CDNB (1 mM)-GSH (2.5 mM) assay, mean of three assays, variation less than 5%.

On to `CC1(C)[C@H](C(=O)O[C@H](C#N)c2cccc(Oc3ccccc3)c2)[C@@H]1/C=C(\Cl)C(F)(F)F` (racemic) [Lambda-Cyhalothrin], for which, in test [1] (setting [4]), the inhibition at 25 µM is 0%. For `CCOCN(C(=O)CCl)c1c(C)cccc1CC` [Acetochlor, acetochlor], the inhibition at 25 µM in test [1] (setting [4]) was 13.8%. In the case of `CCc1cccc(CC)c1N(COC)C(=O)CCl` [Alachlor, alachlor], in test [1] (setting [4]), the inhibition at 25 µM amounted to 32%.

Take `CC1(C)C(C=C(Cl)Cl)C1C(=O)OC(C#N)c1cccc(Oc2ccccc2)c1` (stereo not drawn) [Alpha cypermethrin]: in test [1] (setting [4]), the inhibition at 25 µM worked out at 0%. For `CCNc1nc(Cl)nc(NC(C)C)n1` [Atrazine], the inhibition at 25 µM in test [1] (setting [4]) is 28.7%. The same measure, in the same setting: as for `O=C(Nc1ccccc1-c1ccc(Cl)cc1)c1cccnc1Cl` [Boscalid], the figure is 20.4%.

On to `CCCCOCN(C(=O)CCl)c1c(CC)cccc1CC` [Butachlor, butachlor], for which, in test [1] (setting [4]), the inhibition at 25 µM is 35.3%. In test [2], the IC50 worked out at 236 ± 4.5 µM. `CNC(=O)Oc1cccc2ccccc12` [Carbaryl]: in test [1], the inhibition at 25 µM stood at 0%. As to `COC(=O)Nc1nc2ccccc2[nH]1` [Carbedazim], the “Inhibition (%)” value in test [1] (setting [5]) came to 8.00%. As for `CNC(=O)Oc1cccc2c1OC(C)(C)C2` [Carbofuran], the inhibition at 25 µM in test [1] (setting [4]) stood at 0%. Consider `CCOP(=S)(OCC)Oc1nc(Cl)c(Cl)cc1Cl` [Chlorpyrifos], for which the inhibition at 25 µM in test [1] (setting [4]) came to 0%. As to `CN/C(=N\[N+](=O)[O-])NCc1cnc(Cl)s1` [Clothianidin], at 25 µM the inhibition in test [1] was 0%. On to `CC1(C)[C@H](C(=O)O[C@H](C#N)c2cccc(Oc3ccccc3)c2)[C@@H]1C=C(Br)Br` [Deltamethrin], for which the inhibition at 25 µM in test [1] (setting [4]) was 0%. Regarding `CCOC(=O)Nc1cccc(OC(=O)Nc2ccccc2)c1` [Desmedipham], in test [1] (setting [4]), the inhibition at 25 µM turned out to be 0%. For the compound `COP(=O)(OC)OC=C(Cl)Cl` [Dichloros], the “Inhibition (%)” value in test [1] (setting [5]) is 1.48%.

For `O=C(NC(=O)c1c(F)cccc1F)Nc1ccc(Cl)cc1` [Diflubenzuron], the inhibition at 25 µM in test [1] (setting [4]) stood at 0%. As for `CN(C)C(=O)Nc1ccc(Cl)c(Cl)c1` [Diuron], in test [1] (setting [4]), the inhibition at 25 µM is 15%.

For `O=S1OCC2C(CO1)C1(Cl)C(Cl)=C(Cl)C2(Cl)C1(Cl)Cl` (centres unmarked) [Endosulfan], the inhibition at 25 µM in test [1] (setting [4]) turned out to be 14.7%. Still for that read-out and setting: as for `CSC1=N[C@@](C)(c2ccccc2)C(=O)N1Nc1ccccc1` [Fenamidone], the figure is 0%. With `CC1(C(=O)Nc2ccc(O)c(Cl)c2Cl)CCCCC1` [Fenhexamid, fenhexamid], the inhibition at 25 µM in test [1] (setting [4]) turned out to be 35.3%. In addition, the 50% inhibitory concentration (IC50) in test [2] stood at 278 ± 14.5 µM.

In the case of `CC(C)C(C(=O)OC(C#N)c1cccc(Oc2ccccc2)c1)c1ccc(Cl)cc1` (centres unmarked) [Fenvalerate], the inhibition at 25 µM in test [1] (setting [4]) amounted to 0%. For the compound `O=[N+]([O-])c1ccc(Oc2ccc(C(F)(F)F)cc2[N+](=O)[O-])cc1` [Fluorodifen], the inhibition at 25 µM in test [1] (setting [4]) was 16.7%. Regarding `CO/N=C(/C1=NOCCO1)c1ccccc1Oc1ncnc(Oc2ccccc2Cl)c1F` [Fluoxastrobin], the inhibition at 25 µM in test [1] (setting [4]) turned out to be 18.5%. Regarding `CCO[PH](=O)O` [Fosetyl-Al], in test [1] (setting [5]), the “Inhibition (%)” value was 0.66%.

As to `O=[N+]([O-])NC1=NCCN1Cc1ccc(Cl)nc1` [Imidacloprid], in test [1] (setting [4]), the inhibition at 25 µM came out at 0%. Same read-out and setting: with `CC(C)NC(=O)N1CC(=O)N(c2cc(Cl)cc(Cl)c2)C1=O` [Iprodione] the figure was 19.5%. The same measure, in the same setting: as for `CO/N=C(/C(=O)OC)c1ccccc1COc1ccccc1C` [Kresoxim-methyl], the figure is 14.5%; as for `Cl[C@H]1[C@H](Cl)[C@@H](Cl)[C@@H](Cl)[C@H](Cl)[C@H]1Cl` [Lindane], 13%. On to `CCOC(=O)CC(SP(=S)(OC)OC)C(=O)OCC` (centres unmarked) [Malathion, malathion], for which the inhibition at 25 µM in test [1] (setting [4]) came to 12.7%. For the compound `C#CCOc1ccc(CCNC(=O)C(OCC#C)c2ccc(Cl)cc2)cc1OC` (centres unmarked) [Mandipropamid], the “Inhibition (%)” value in test [1] (setting [5]) is reported as 21.47%. For the compound `COCC(=O)N(c1c(C)cccc1C)C(C)C(=O)OC` (centres unmarked) [Metalaxyl], the inhibition at 25 µM in test [1] (setting [4]) came out at 19.8%. Consider `Cc1cccc(C)c1N(Cn1cccn1)C(=O)CCl` [Metazachlor, metazachlor], for which, in test [1] (setting [4]), the inhibition at 25 µM came to 19.7%. Take `CNC(=O)ON=C(C)SC` [Methomyl]: the inhibition at 25 µM in test [1] (setting [4]) stood at 20%. For the compound `CCc1cccc(C)c1N(C(=O)CCl)C(C)COC` (centres unmarked) [Metolachlor], the inhibition at 25 µM in test [1] (setting [4]) is 9.2%. The compound `CNC(=O)CSP(=O)(OC)OC` [Omethoate] returned an inhibition at 25 µM in test [1] of 3.21%.

On to `CC1(C)C(C=C(Cl)Cl)C1C(=O)OCc1cccc(Oc2ccccc2)c1` (centres unmarked) [Permethrin], for which the inhibition at 25 µM in test [1] (setting [4]) amounted to 11.2%. `COC(=O)Nc1cccc(OC(=O)Nc2cccc(C)c2)c1` [Phenmedipham]: in test [1] (setting [4]), the inhibition at 25 µM was determined as 16%. In the case of `CO/C=C(/C(=O)OC)c1ccccc1COc1cccc(C(F)(F)F)n1` [Picoxystrobin], the “Inhibition (%)” value in test [1] (setting [5]) was 10.56%.

Turning to `CC(C)N(C(=O)CCl)c1ccccc1` [Propachlor, propachlor], in test [1] (setting [4]), the inhibition at 25 µM was found to be 11.2%. On the same count and under the same terms, with `OC(Cc1ccccc1Cl)(Cn1nc[nH]c1=S)C1(Cl)CC1` (centres unmarked) [Prothioconazole] the figure was 26.5%. For the compound `Cc1cc(C)nc(Nc2ccccc2)n1` [Pyrimethanil], in test [1] (setting [4]), the inhibition at 25 µM was 7.49%. In the case of `N[C@@H](CCC(=O)N[C@@H](CSCc1ccc([N+](=O)[O-])cc1)C(=O)NCC(=O)O)C(=O)O` [S-nitrobenzyl-GSH, S-nitrobenzyl-glutathione], the “Effect on inactivation of hGSTM1-1 by GS-ESF” value in test [3] is listed as “diminish the observed rate of enzyme inactivation”. As to `CCC(C)(C)C(=O)OC1=C(c2ccc(Cl)cc2Cl)C(=O)OC12CCCCC2` [Spirodiclofen], the “Inhibition (%)” value in test [1] (setting [5]) is 10.20%. In the case of `Cc1cc(C)c(C2=C(OC(=O)CC(C)(C)C)C3(CCCC3)OC2=O)c(C)c1` [Spiromesifen], in test [1] (setting [5]), the “Inhibition (%)” value is on record as 1.27%.

As for `CCOC(=O)OC1=C(c2cc(C)ccc2C)C(=O)N[C@]12CC[C@@H](OC)CC2` [Spirotetramat], in test [1] (setting [4]), the inhibition at 25 µM was 29.3%. `O=C(NC(=O)c1c(F)cccc1F)Nc1cc(Cl)c(F)c(Cl)c1F` [Teflubenzuron]: the inhibition at 25 µM in test [1] (setting [4]) came to 11.2%.

As for `CCNc1nc(Cl)nc(NC(C)(C)C)n1` [Terbuthylazine], the inhibition at 25 µM in test [1] (setting [4]) amounted to 12%.

As to `N#C/N=C1\SCCN1Cc1ccc(Cl)nc1` [Thiacloprid], 25 µM produced 10.7% inhibition in test [1]. In turn, `COP(=S)(OC)Oc1c(Cl)cc(C)cc1Cl` [Tolclofos-methyl] gave an inhibition at 25 µM in test [1] of 9.32%. Turning to `CC(C)(C)C(O)C(Oc1ccc(Cl)cc1)n1cncn1` (centres unmarked) [Triadimenol], the inhibition at 25 µM in test [1] (setting [4]) turned out to be 0%. On to `CON=C(C(=O)OC)c1ccccc1CON=C(C)c1cccc(C(F)(F)F)c1` [Trifloxystrobin], for which, in test [1] (setting [4]), the inhibition at 25 µM stood at 2.88%. Same read-out and setting: with `O=C(NC(=O)c1ccccc1Cl)Nc1ccc(OC(F)(F)F)cc1` [Triflumuron] the figure was 22.7%; with `C=CC1(C)OC(=O)N(c2cc(Cl)cc(Cl)c2)C1=O` (centres unmarked) [Vinclozolin], 14.3%; with `CCC(C)(NC(=O)c1cc(Cl)c(C)c(Cl)c1)C(=O)CCl` (centres unmarked) [Zoxamide], 20%. As to `O=S1OC[C@@H]2[C@H](CO1)[C@@]1(Cl)C(Cl)=C(Cl)[C@]2(Cl)C1(Cl)Cl` (stereo partly drawn) [alpha Endosulfan], the “Inhibition (%)” value in test [1] (setting [5]) came out at 16.66%. For Imidachlor, in test [1] (setting [5]), the “Inhibition (%)” value came out at 10.14%. For the compound Spinosad, in test [1] (setting [5]), the “Inhibition (%)” value is given as 0%.
